Data as given in patent US20100305202A1, “LYOPHILIZED PHARMACEUTICAL COMPOSITION WITH IMPROVED STABILITY CONTAINING TAXANE DERIVATIVES, AND METHOD OF MANUFACTURING THE SAME” (priority 2007, published 2010).

What was measured:
[1] = no additive; cited from earlier work
[2] = Solubility of docetaxel in distilled water with PVP and HPBCD (Experimental Example 1); format: physicochemical
Experimental: The solubility of docetaxel was measured by performing liquid chromatography with UV detector (230 nm).
The solubility of docetaxel in distilled water proportionally increases between 10% and 30% of weight ratio (w/v %) of hydroxypropyl β-cyclodextrin (HPBCD).
Further, the ratio of HPBCD relative to docetaxel was at least 1:11 and the concentration of HPBCD will be lowered if the concentration unit (w/v) is converted into (mg/mL) unit. Therefore, docetaxel may be solubilized even when the ratio of docetaxel:HPBCD becomes smaller than 1:11. Therefore, according to the present invention, it is preferable to use more than 1 part by weight of hydroxypropyl β-cyclodextrin (HPBCD), and more preferably 5 parts by weight relative to 1 part by weight of the taxoid.

## CC(=O)O[C@@]12CO[C@@H]1C[C@H](O)[C@@]1(C)C(=O)[C@H](O)C3=C(C)[C@@H](OC(=O)[C@H](O)[C@@H](NC(=O)OC(C)(C)C)c4ccccc4)C[C@@](O)([C@@H](OC(=O)c4ccccc4)[C@H]21)C3(C)C [docetaxel]
[1]
  commonly known solubility of docetaxel in distilled water: 0.025 µg/mL
[2]; 31.1 mg/mL versus 0.000025 mg/mL
  better solubility with HPBCD versus distilled water: 1.2 million
[2]; with hydroxypropyl β-cyclodextrin (HPBCD)
  solubility of docetaxel added with HPBCD in distilled water: 31.1 mg/mL
